Like-named read-outs stand apart in the source and are kept apart here.
Format: in vitro ADME, human
Settings: for ATK9 epitope produced (share of degradation products): representative donor; for degradation rate of substrate in CD3/CD28-stimulated vs non-stimulated extracts: paired CD4 T cell cytosolic extracts, 37 °C, pH 7.4, LC-MS/MS; for time of peak production of N-extended TW10 precursors: sampled at 2, 5 and 8 h
[1] = CD3/CD28-stimulated extract, 120 min
[2] = CD3/CD28-stimulated extract, 180 min
[3] = non-stimulated extract, 120 min
[4] = non-stimulated extract, 180 min

| Structure (SMILES) | antitopes produced (share of degradation products) [1] [%] | ATK9 epitope produced (share of degradation products) [1] [%] | antitopes produced (share of degradation products) [2] [%] | ATK9 epitope produced (share of degradation products) [2] [%] | antitopes produced (share of degradation products) [3] [%] | ATK9 epitope produced (share of degradation products) [3] [%] | antitopes produced (share of degradation products) [4] [%] | ATK9 epitope produced (share of degradation products) [4] [%] | degradation rate of substrate in CD3/CD28-stimulated vs non-stimulated extracts | time of peak production of N-extended TW10 precursors (activated extracts) [h] | time of peak production of N-extended TW10 precursors (extracts from resting CD4 T cells) [h] | detection of optimal TW10 at 2, 5 and 8 hours (paired resting and activated extracts) |
| --- | --- | --- | --- | --- | --- | --- | --- | --- | --- | --- | --- | --- |
| CC[C@H](C)[C@H](NC(=O)[C@H](C)NC(=O)[C@@H]1CCCN1C(=O)[C@H](CO)NC(=O)CNC(=O)[C@H](CCCCN)NC(=O)[C@@H](N)Cc1c[nH]c2ccccc12)C(=O)N[C@@H](Cc1ccccc1)C(=O)N[C@@H](CCC(N)=O)C(=O)N[C@@H](CO)C(=O)N[C@@H](CO)C(=O)N[C@@H](CCSC)C(=O)N[C@H](C(=O)N[C@@H](CCCCN)C(=O)N[C@H](C(=O)N[C@@H](CC(C)C)C(=O)O)[C@@H](C)CC)[C@@H](C)O [5-ATK9–2] | 66.43 | 0.49 | 79.38 | 0.54 | 48.1 | 1.05 | 57.7 | 1.06 | degraded faster |  |  |  |
| CC[C@H](C)[C@H](NC(=O)[C@H](CCC(N)=O)NC(=O)[C@H](CCC(=O)O)NC(=O)[C@H](CCC(N)=O)NC(=O)[C@H](CC(C)C)NC(=O)[C@@H](NC(=O)[C@H](CO)NC(=O)[C@@H](NC(=O)[C@@H](NC(=O)CNC(=O)[C@H](C)NC(=O)[C@@H](NC(=O)[C@@H](N)CC(=O)O)[C@@H](C)CC)[C@@H](C)O)[C@@H](C)O)[C@@H](C)O)C(=O)NCC(=O)N[C@@H](Cc1c[nH]c2ccccc12)C(=O)N[C@@H](CCSC)C(=O)N[C@H](C(=O)N[C@@H](CC(N)=O)C(=O)O)[C@@H](C)O [5-TW10–3] |  |  |  |  |  |  |  |  | faster degradation rates | 2 | 5 | only in activated extracts |

— article PMC6504579 (Journal of immunology (Baltimore, Md. : 1950), 2019)
